US7288660B2, “Process for preparing ondansetron hydrochloride dihydrate having a defined particle size” (Taro Pharmaceutical Industries Limited, priority 2004, dated 2007)
Structures can show the parent of a compound that is named as a salt.

What was measured:
[1] = Particle size determination by laser diffraction (MALVERN Mastersizer 2000); format: physicochemical; conditions: for <63 μm (fraction of particles by volume smaller than specified diameter) / <150 μm (fraction of particles by volume smaller than specified diameter) / Mean particle size: hydrochloride dihydrate
Description: Particle Size Determination by Laser Diffraction
The particle size of the obtained ondansetron hydrochloride dihydrate particles was determined as set forth above (See Methodology and Protocols). The mean particle size and particle size distribution of the particles (fraction of particles by volume smaller than specified diameter) are presented in the following table.

[2] = particles from the '578 patent process (cooling isopropanol/water solution); cited from earlier work
[3] = Drying: 40° C., eight (8) hours, 25° C., two (2) days
[4] = Drying: Ambient conditions, six (6) hours
[5] = Drying: None (i.e., wet particles after filtration)

| SMILES | <250 μm (fraction of particles by volume smaller than specified diameter) ([1]; dried particles) [%] | <63 μm (fraction of particles by volume smaller than specified diameter) ([1]; dried particles) [%] | <150 μm (fraction of particles by volume smaller than specified diameter) ([1]; dried particles) [%] | Mean particle size ([1]; dried particles) [μm] | further results |
| --- | --- | --- | --- | --- | --- |
| Cc1nccn1CC1CCc2c(c3ccccc3n2C)C1=O (single isomer, unassigned) [Example 3, ondansetron hydrochloride dihydrate] | 100 | 34 | 85 | 81 |  |
| Cc1nccn1CC1CCc2c(c3ccccc3n2C)C1=O (stereo not shown) [Example 6, ondansetron hydrochloride dihydrate] |  |  |  |  | <60 μm [1, 3]: 15%; <350 μm [1, 3]: 100%; <60 μm ([1]; Drying: 40° C., four (4) hours): 28%; <280 μm ([1]; Drying: 40° C., four (4) hours): 100%; <60 μm ([1]; Drying: 40° C., two (2) hours): 35%; <290 μm ([1]; Drying: 40° C., two (2) hours): 100%; <60 μm [1, 4]: 28%; <280 μm [1, 4]: 100%; <60 μm [1, 5]: 31%; <280 μm [1, 5]: 100% |
| Cc1nccn1CC1CCc2c(c3ccccc3n2C)C1=O (single isomer, unassigned) [Example 4, ondansetron hydrochloride dihydrate] | 100 | 12 | 85 | 81 |  |
| Cc1nccn1CC1CCc2c(c3ccccc3n2C)C1=O (single isomer, unassigned) [Example 1, ondansetron hydrochloride dihydrate] | 100 |  | 90 | 96 | <60 μm (fraction of particles by volume smaller than specified diameter) ([1]; dried particles): 19% |
| Cc1nccn1CC1CCc2c(c3ccccc3n2C)C1=O (single isomer, unassigned) [Example 2, ondansetron hydrochloride dihydrate] | 100 | 31 | 90 | 81 |  |
| Cc1nccn1CC1CCc2c(c3ccccc3n2C)C1=O (stereo not shown) [ondansetron hydrochloride dihydrate] |  |  |  |  | Fraction of particles smaller than 250 μm [2]: less than 60% |
| Cc1nccn1CC1CCc2c(c3ccccc3n2C)C1=O (single isomer, unassigned) [Example 5, ondansetron hydrochloride dihydrate] | 100 | 26 | 85 | 89 |  |
